Test results reported in ChEMBL document CHEMBL1127869, “Angiotensin II receptor antagonists: imidazoles and pyrroles bearing hydroxymethyl and carboxy substituents” (Bioorg Med Chem Lett, 1994).

Tests used:
[1] = target: T1, Type-1 angiotensin II receptor (Bos taurus, UniProt P25104); experiment: Inhibition of [125l]-All binding to bovine adrenal cortex; format: tissue-based
T1 sequence (P25104 whole entry): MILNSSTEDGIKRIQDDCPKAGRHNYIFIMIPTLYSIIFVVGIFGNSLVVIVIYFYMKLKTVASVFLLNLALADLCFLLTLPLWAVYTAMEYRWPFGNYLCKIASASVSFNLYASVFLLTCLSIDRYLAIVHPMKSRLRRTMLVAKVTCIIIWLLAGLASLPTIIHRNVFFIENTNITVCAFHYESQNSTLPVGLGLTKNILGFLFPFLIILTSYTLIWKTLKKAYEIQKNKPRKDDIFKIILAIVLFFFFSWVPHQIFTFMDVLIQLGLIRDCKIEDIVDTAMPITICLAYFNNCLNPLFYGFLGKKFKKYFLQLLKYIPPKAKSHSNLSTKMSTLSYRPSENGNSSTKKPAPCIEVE

Rattus norvegicus = experiment: Compound tested for in vivo inhibitory dose against All-induced pressor response in normotensive, conscious rats; format: functional; conditions: read-out: ID50 (the source's name)

| IC50 [1] [nM] | SMILES | ED50 (Rattus norvegicus) [mg/kg] |
| --- | --- | --- |
| 2100 | CCCc1cc(C(=O)O)c(CO)n1Cc1ccc(-c2ccccc2C(=O)O)cc1 | 5.9 |
| 120 | CCCCc1nc(Cl)c(CO)n1Cc1ccc(-c2ccccc2-c2nnn[nH]2)cc1 [LOSARTAN] | 0.3 |
| 4500 | CCCc1cc(COC)c(C(=O)O)n1Cc1ccc(-c2ccccc2C(=O)O)cc1 | 4.2 |
| 65 | CCCCc1nc(CO)c(C(=O)O)n1Cc1ccc(-c2ccccc2C(=O)O)cc1 | 0.22 |
| 490 | CCCCc1nc(Cl)c(CO)n1Cc1ccc(-c2ccccc2C(=O)O)cc1 | 2.3 |
| 320 | CCCc1nc(C(=O)O)c(C(=O)O)n1Cc1ccc(-c2ccccc2C(=O)O)cc1 | 0.67 |

Second part, the compound before the results:

| SMILES | IC50 [1] [nM] | ED50 (Rattus norvegicus) [mg/kg] |
| --- | --- | --- |
| CCCCc1nc(Cl)c(C(=O)O)n1Cc1ccc(-c2ccccc2C(=O)O)cc1 |  | 0.21 |
| CCc1nc(CO)c(C(=O)O)n1Cc1ccc(-c2ccccc2C(=O)O)cc1 | 150 | 0.27 |
| CCCc1nc(CO)c(CO)n1Cc1ccc(-c2ccccc2C(=O)O)cc1 | 2700 | 2.1 |
| CCCCc1nc(Cl)c(C(=O)O)n1Cc1ccc(-c2ccccc2-c2nn[nH]n2)cc1 [CARBOXYLIC ACID METABOLITE] | 22 | 0.1 |
| CCCc1nc(CO)c(C(=O)OCC)n1Cc1ccc(-c2ccccc2C(=O)O)cc1 | 840 | 1.5 |
| CCCc1nc(C(=O)O)c(CO)n1Cc1ccc(-c2ccccc2C(=O)O)cc1 |  | 8.8 |
| CCCc1nc(CO)c(C(=O)O)n1Cc1ccc(-c2ccccc2C(=O)O)cc1 | 58 | 0.069 |
